Source: patent US10829796B2, “Bacteria identification and antimicrobial susceptibility test” (priority 2015, dated 2020)

Key:
Assay type in all cases: cell-based
Staphylococcus aureus = assay: Antibiotic susceptibility testing (colour of media), spiked milk; conditions: bacteria sample 5c
Procedure: Tables 36 to 38 which follow show further examples of antibiotic susceptibility testing performed in accordance with the present invention. Table 36, antibiotic susceptibility testing of Staphylococcus aureus in Mueller Hinton and Tryptic Soy Broth at pre-incubation and at between 15-24 h. Tables 37 and 38, antimicrobial susceptibility testing of Streptococcus uberis and E. coli with the addition of gram negative specific antibiotic aztreonam. Tables 38 to 49 show further examples of antibiotic susceptibility testing and the outcomes are aligned with the described inventions.

Streptococcus uberis [1] = assay: Group D Streptococci identification, esculin/ferric citrate in TSB (blackening = growth), bacteria in milk; conditions: TSB containing 0.5% esculin and 0.25% ferric citrate + 80 uL spiked milk; 100 ug/ml aztreonam and/or 0.5 mg/mL phenol red
Procedure: By way of illustration, the same experiment was conducted as above, only this time using clinical milk samples obtained from a bovine animal suspect of being infected with mastitis.
However, Applicant has discovered that increased amounts of esculin and ferric citrate may be used in milk derived clinical samples. For example, at concentrations of at least 2% esculin and 1% ferric citrate, the growth of Streptococcus uberis is not inhibited.
Note, in the experiments above, the clinical sample tested was milk obtained from a bovine animal suspected of being infected by mastitis. If a non-milk clinical sample were to be tested, then inclusion of a stabilizing agent (e.g. milk in the form of a liquid or powder) would be required in order to suppress the growth inhibitory effect of esculin and ferric citrate at the higher concentrations used according to this invention.
Applicant further discovered that TSB containing 0.5% esculin and 0.25% ferric citrate and 80 uL of spiked Streptococcus uberis milk sample which also contained 100 ug/ml aztreonam concentration (antibiotic which has activity against many gram-bacteria such as E. coli) and/or in combination with 0.5 mg/mL phenol red led to easy detectable colour changes. No inhibition of Streptococcus uberis due to phenol red or aztreonam was detected.

Streptococcus uberis [2] = assay: Colour change of enrichment media with pH indicator, bacteria in milk (stabilizing agent); conditions: excess concentration (Table 4e, 0.04%) in presence of milk; all inoculums investigated
Description: The present invention overcomes these limitations through inclusion of one or more stabilizing agents which suppresses the potential inhibitory effect of the colour based pH indicator. As such, increased concentrations of the colour based pH indicator (e.g. phenol red) may be used in the test, thereby achieving stability in the colour change associated with bacteria growth. An example of a stabilizing agent according to the present invention is milk.
In this Example, liquid culture media is used which allows early and easy identification of susceptible antimicrobials to support decision of antimicrobial selection to treat bacterial infections. It also allows the detection of bacteria such as gram+ and/or gram-bacteria in clinical samples are present and/or allows estimation of the inoculum from kinetic analyses of colour change. The base of this liquid culture medium is a general purpose liquid enrichment medium for example tryptic soy broth (Soybean-Casein Digest Medium) but could also be Mueller Hinton broth. This TSB media has excess concentration of a pH indicator such as phenol red and/or bromocresol purple and milk. […] Colorimetric analyses can performed by the naked eye or by an optical reader for example via CCD camera chip or photo diode. […]

[3] = T = 0 hours (pre incubation), drug 0.01 μg/ml, Mueller Hinton (70 ul composition 26)
[4] = T = 0 hours (pre incubation), drug 0.05 μg/ml, Mueller Hinton (70 ul composition 26)
[5] = T = 0 hours (pre incubation), drug 0.1 μg/ml, Mueller Hinton (70 ul composition 26)
[6] = T = 0 hours (pre incubation), drug 0.5 μg/ml, Mueller Hinton (70 ul composition 26)
[7] = T = 0 hours (pre incubation), drug 1 μg/ml, Mueller Hinton (70 ul composition 26)
[8] = T = 0 hours (pre incubation), drug 5 μg/ml, Mueller Hinton (70 ul composition 26)
[9] = T = 0 hours (pre incubation), drug 10 μg/ml, Mueller Hinton (70 ul composition 26)
[10] = T = 0 hours (pre incubation), drug 50 μg/ml, Mueller Hinton (70 ul composition 26)
[11] = T = 0 hours (pre incubation), drug 100 μg/ml, Mueller Hinton (70 ul composition 26)
[12] = T = 0 hours (pre incubation), drug 500 μg/ml, Mueller Hinton (70 ul composition 26)
[13] = T = 15-24 h at 35° C., drug 0.01 μg/ml, Mueller Hinton (70 ul composition 26)
[14] = T = 15-24 h at 35° C., drug 0.05 μg/ml, Mueller Hinton (70 ul composition 26)
[15] = T = 15-24 h at 35° C., drug 0.1 μg/ml, Mueller Hinton (70 ul composition 26)
[16] = T = 15-24 h at 35° C., drug 0.5 μg/ml, Mueller Hinton (70 ul composition 26)
[17] = T = 15-24 h at 35° C., drug 1 μg/ml, Mueller Hinton (70 ul composition 26)
[18] = T = 15-24 h at 35° C., drug 5 μg/ml, Mueller Hinton (70 ul composition 26)
[19] = T = 15-24 h at 35° C., drug 10 μg/ml, Mueller Hinton (70 ul composition 26)
[20] = T = 15-24 h at 35° C., drug 50 μg/ml, Mueller Hinton (70 ul composition 26)
[21] = T = 15-24 h at 35° C., drug 100 μg/ml, Mueller Hinton (70 ul composition 26)
[22] = T = 15-24 h at 35° C., drug 500 μg/ml, Mueller Hinton (70 ul composition 26)

CN[C@@H]1[C@H](O[C@H]2[C@H](O[C@H]3[C@H](O)[C@@H](O)[C@H](NC(=N)N)[C@@H](O)[C@@H]3NC(=N)N)O[C@@H](C)[C@]2(O)CO)O[C@@H](CO)[C@H](O)[C@H]1O [Dihydrostreptomycin]
Colour of media (Staphylococcus aureus; T = 0 hours (pre incubation), drug 0.01 μg/ml, Tryptic Soy (70 ul composition 2c)): red
Colour of media (Staphylococcus aureus; T = 0 hours (pre incubation), drug 0.05 μg/ml, Tryptic Soy (70 ul composition 2c)): red
Colour of media (Staphylococcus aureus; T = 0 hours (pre incubation), drug 0.1 μg/ml, Tryptic Soy (70 ul composition 2c)): red
Colour of media (Staphylococcus aureus; T = 0 hours (pre incubation), drug 0.5 μg/ml, Tryptic Soy (70 ul composition 2c)): red
Colour of media (Staphylococcus aureus; T = 0 hours (pre incubation), drug 1 μg/ml, Tryptic Soy (70 ul composition 2c)): red
Colour of media (Staphylococcus aureus; T = 0 hours (pre incubation), drug 5 μg/ml, Tryptic Soy (70 ul composition 2c)): red
Colour of media (Staphylococcus aureus; T = 0 hours (pre incubation), drug 10 μg/ml, Tryptic Soy (70 ul composition 2c)): red
Colour of media (Staphylococcus aureus; T = 0 hours (pre incubation), drug 50 μg/ml, Tryptic Soy (70 ul composition 2c)): red
Colour of media (Staphylococcus aureus; T = 0 hours (pre incubation), drug 100 μg/ml, Tryptic Soy (70 ul composition 2c)): red
Colour of media (Staphylococcus aureus; T = 0 hours (pre incubation), drug 500 μg/ml, Tryptic Soy (70 ul composition 2c)): red
Colour of media (Staphylococcus aureus; T = 15-24 h at 35° C., drug 0.01 μg/ml, Tryptic Soy (70 ul composition 2c)): yellow
Colour of media (Staphylococcus aureus; T = 15-24 h at 35° C., drug 0.05 μg/ml, Tryptic Soy (70 ul composition 2c)): yellow
Colour of media (Staphylococcus aureus; T = 15-24 h at 35° C., drug 0.1 μg/ml, Tryptic Soy (70 ul composition 2c)): yellow
Colour of media (Staphylococcus aureus; T = 15-24 h at 35° C., drug 0.5 μg/ml, Tryptic Soy (70 ul composition 2c)): yellow
Colour of media (Staphylococcus aureus; T = 15-24 h at 35° C., drug 1 μg/ml, Tryptic Soy (70 ul composition 2c)): yellow
Colour of media (Staphylococcus aureus; T = 15-24 h at 35° C., drug 5 μg/ml, Tryptic Soy (70 ul composition 2c)): yellow
Colour of media (Staphylococcus aureus; T = 15-24 h at 35° C., drug 10 μg/ml, Tryptic Soy (70 ul composition 2c)): yellow
Colour of media (Staphylococcus aureus; T = 15-24 h at 35° C., drug 50 μg/ml, Tryptic Soy (70 ul composition 2c)): yellow
Colour of media (Staphylococcus aureus; T = 15-24 h at 35° C., drug 100 μg/ml, Tryptic Soy (70 ul composition 2c)): red
Colour of media (Staphylococcus aureus; T = 15-24 h at 35° C., drug 500 μg/ml, Tryptic Soy (70 ul composition 2c)): red

O=S1(=O)OC(c2ccc(O)cc2)(c2ccc(O)cc2)c2ccccc21 [phenol red]
Inhibition of Streptococcus uberis (Streptococcus uberis [1]): No inhibition

NC[C@@H]1O[C@H](O[C@H]2[C@@H](O)[C@H](O[C@@H]3[C@@H](O)[C@H](N)C[C@H](N)[C@H]3O[C@H]3O[C@H](CN)[C@@H](O)[C@H](O)[C@H]3N)O[C@@H]2CO)[C@H](N)[C@@H](O)[C@@H]1O [Neomycin]
Colour of media (Staphylococcus aureus; [3]): red
Colour of media (Staphylococcus aureus; [4]): red
Colour of media (Staphylococcus aureus; [5]): red
Colour of media (Staphylococcus aureus; [6]): red
Colour of media (Staphylococcus aureus; [7]): red
Colour of media (Staphylococcus aureus; [8]): red
Colour of media (Staphylococcus aureus; [9]): red
Colour of media (Staphylococcus aureus; [10]): red
Colour of media (Staphylococcus aureus; [11]): red
Colour of media (Staphylococcus aureus; [12]): red
Colour of media (Staphylococcus aureus; [13]): yellow
Colour of media (Staphylococcus aureus; [14]): yellow
Colour of media (Staphylococcus aureus; [15]): yellow
Colour of media (Staphylococcus aureus; [16]): yellow
Colour of media (Staphylococcus aureus; [17]): yellow
Colour of media (Staphylococcus aureus; [18]): red
Colour of media (Staphylococcus aureus; [19]): red
Colour of media (Staphylococcus aureus; [20]): red
Colour of media (Staphylococcus aureus; [21]): red
Colour of media (Staphylococcus aureus; [22]): red

Cc1cc(C2(c3cc(C)c(O)c(Br)c3)OS(=O)(=O)c3ccccc32)cc(Br)c1O [bromocresol purple]
Growth inhibition (Streptococcus uberis [2]): does not inhibit growth

CC1=C(C(=O)O)N2C(=O)[C@@H](NC(=O)[C@H](N)c3ccccc3)[C@H]2SC1 [Cephalexin]
Colour of media (Staphylococcus aureus; [3]): red
Colour of media (Staphylococcus aureus; [4]): red
Colour of media (Staphylococcus aureus; [5]): red
Colour of media (Staphylococcus aureus; [6]): red
Colour of media (Staphylococcus aureus; [7]): red
Colour of media (Staphylococcus aureus; [8]): red
Colour of media (Staphylococcus aureus; [9]): red
Colour of media (Staphylococcus aureus; [10]): red
Colour of media (Staphylococcus aureus; [11]): red
Colour of media (Staphylococcus aureus; [12]): red
Colour of media (Staphylococcus aureus; [13]): yellow
Colour of media (Staphylococcus aureus; [14]): yellow
Colour of media (Staphylococcus aureus; [15]): yellow
Colour of media (Staphylococcus aureus; [16]): yellow
Colour of media (Staphylococcus aureus; [17]): red
Colour of media (Staphylococcus aureus; [18]): red
Colour of media (Staphylococcus aureus; [19]): red
Colour of media (Staphylococcus aureus; [20]): red
Colour of media (Staphylococcus aureus; [21]): red
Colour of media (Staphylococcus aureus; [22]): red
